The values that follow are results of earlier work, collected in paper PMC10216446 (Biomolecules, 2023).

The conditions of series [1]: stated as a known limitation of TNP, no reference given.
In series [2] the test system is human cytochrome P450s. The arrangement: method as in PMID 27689003.
In series [3] the test system is IP6K. The note with it: reported values; read-out: reported IC50 values for TNP.

Molecules are shown by their SMILES.

On to `O=[N+]([O-])c1ccc(CNc2nc(NCc3cccc(C(F)(F)F)c3)nc3nc[nH]c23)cc1` [TNP, N2-(m-trifluorobenzyl), N6-(p-nitrobenzyl)purine], for which the aqueous solubility entry in series [1] is on record as “poor”. The “inhibition of human cytochrome P450s” value in series [2] is “potent inhibitor of human cytochrome P450s”. Besides, in series [3], the IC50 is 250 to 1000 nM.

For orientation: IC50 means the concentration at which inhibition is half-maximal.
